Data reported in US8236761B2, “C-Met receptor regulation by angiotensin IV (AT4) receptor ligands” (Washington State University Research Foundation, priority 2006, dated 2012).
Non-standard residues stand in square brackets, D forms with d. No end group written: not given here. Nle = CCCC[C@H](N)C(=O)O

Tests used:
[1] = tested on: neovascularization; test: Disc angiogenesis assay (subcutaneous sponge disc); type: in vivo, Sprague Dawley rats; settings: 50 μg per disc core, 14 days, rat
Experimental: FIG. 19 depicts effects on angiogenesis of angiotensin-like factors in a rat in vivo disc angiogenesis assay. Vascularization was quantified by digital image analysis of fixed and stained discs recovered from animals 14 days after subcutaneous implantation of sponge discs containing the indicated compounds.
Disc Angiogenesis Assay. […] A 2 mm core was removed from the center of each disc, saturated with 50 μg of Nle^1-AngIV (SEQ ID NO:41), Nle^1-Leu^3-Ψ(CH2NH2)^3-4-AngIV, Hexamide, or ethanol (control), air dried, then sealed using a fixative (Elvax, DuPont) to allow sustained delivery of the drug treatment into the disc and adjacent tissues. The cores were dried for 30 min, then reinserted into the sponge discs. Impermeable top and bottom covers were prepared by coating 10 mm diameter paper discs with a plexiglass coating, then glued to the top and bottom of the sponge discs, leaving only the rim of the disc available for centripetal cellular penetration. Just prior to implantation, the discs were soaked briefly in sterile saline.
Thirty-two Sprague Dawley female rats (225-275 gr) were used to evaluate four compounds for angiogenic or anti-angiogenic properties using the disc angiogenesis assay. Animals were anesthetized using sodium pentobarbital (40 mg/kg IP). The dorsum was then shaved and aseptically prepped. Each animal received four discs. Animals receiving treated discs were implanted with 2 treated discs and 2 ethanol-soaked control discs. Thus, in a group of 4 animals there were 8 treatment discs, and 8 control discs. These control discs were used to determine whether the ligand had potential systemic effects. Another group of 4 animals received only ethanol-soaked control discs (spontaneous growth controls or SGC discs) for an n=16. However, one SGC was fragmented during processing leaving an n=15.
Four 2 cm cutaneous incisions were made along the dorsum (left thoracic, right thoracolumbar, left thoracolumbar, and right lumbar), and subcutaneous pouches opened in the fascia using blunt dissection. Discs were moistened in sterile saline, inserted deep to the pouch, and the skin closed with sterile surgical staples. Animals were recovered under heat lamps until sternally recumbent, then individually housed for 14 days in an AAALAC accredited facility (water and food ad libitum; 12/12 hour light cycle).
After 14 days the animals were euthanized in a CO2 chamber and the discs were removed. […] Cellular penetration into the discs was quantified using a digital imaging system (Imaging Research Inc., St. Catharines, Ontario, Canada). The total area of the disc was calculated, as was the area containing stained cells. […]
Results. Following staining with toludine blue or Factor VIII, neovascularization was quantitated by densitometry.

[2] = tested on: HEK293 cell membranes (c-Met system); test: 125I-Norleual binding assay, HEK293 cell membranes; set-up: species or system human; settings: 1.5 nM HGF or 1 μM Norleual
Experimental: FIG. 3C: ^125I-Norleual was bound to HEK membranes in the presence or absence of 1.5 nM HGF (n=8) or 1 μM Norleual (n=6). Total binding is reported as percent control (n=10), (*p<0.001). Error bars indicate±SD. […] Error bars indicate SD and data points were performed in duplicate.
^125I-Norleual binding assay. HEK293 cells were grown to confluency in DMEM fortified with 10% FBS. Media was aspirated and cells were washed twice with ice-cold PBS. Cells were lysed with hypotonic buffer and homogenized as described by Zhang et al. (1999, J. Pharmacol. Exp. Ther. 289: 1075-1083; 2003 J. Cell Biochem. 88: 408-417). 450 μg of membrane protein was incubated with 1.5 nM ^125I-Norleual with or without Norleual or HGF in a total volume of 250 μl PBS, 0.1% BSA. Tubes were spun and binding was carried out for 60 minutes at RT. Bound and free ligands were separated by vacuum filtration using (Brandel Cell Harvester, Schleicher & Schull, Keene, N.H., USA) 32 glass filters. Radioactivity retained by the filters was measured using a gamma counter. […] Data analysis was preformed using Prism software (GraphicPad) per the supplier's recommendations.
Materials and methods were as described in Example 1. In separate tests of unlabeled competitors, both Norleual and HGF competed with ^125I-HGF for high affinity binding to mouse liver plasma membranes (FIGS. 2A, 2B). […]

[3] = tested on: human endothelial cells; test: Proliferation and migration of human endothelial cells; type: cell-based

“Nle-Tyr-Leu-ψ-His-Pro-Phe ([Nle]YLHPF; also: reduced peptide bond psi(CH2NH2) between Leu and His) [Norleual]” was tested, and the “Effect on angiogenesis in disc assay versus SGC discs” value [1] was “antagonist activity”, the “Competition for 125I-Norleual specific binding to HEK293 cell membranes” value [2] was “competed” and the “Proliferation and migration of human endothelial cells” value [3] was “inhibited”.
